Results on 25 compounds are retold here after BindingDB's records for doi:10.1016/j.bmcl.2009.06.027 (Grupo Uriach, 2009).

The nature of one test: Inhibition of CXCL8-induced chemotaxis in human polymorphonuclear leukocyte pretreated for 15 mins measured after 4 hrs by cell migration assay.
`Cc1ccccc1Nc1ccccc1CC(=O)O` [2-(2-(o-tolylamino)phenyl)acetic acid]: the concentration for half-maximal inhibition (IC50) (in general, the concentration needed to halve the response being measured) is above 1 µM.
Still for that read-out and setting: the same measure for `O=C(O)Cc1ccccc1Oc1ccccc1Cl` [[2-(2-Chloro-phenoxy)-phenyl]-acetic acid]: 0.5 µM; for `O=C(O)Cc1ccccc1Oc1ccccc1` [(2-Phenoxy-phenyl)-acetic acid]: above 1 µM.
On the same count and under the same terms, the same measure for `O=C(O)Cc1ccccc1Cc1c(Cl)cccc1Cl` [2-(2-(2,6-dichlorobenzyl)phenyl)acetic acid]: above 1 µM; for `CC(C)Cc1ccc(CC(=O)O)cc1` [Ibufenac]: above 1 µM; for `CC(C(=O)NC(C)(C)C)c1ccccc1Nc1c(Cl)cccc1Cl` (stereo unspecified) [N-(tert-Butyl)-2-{2-[(2,6-dichlorophenyl)amino]phenyl}propanamide]: 0.65 µM.
For `CC(C(=O)NS(C)(=O)=O)c1ccccc1Nc1c(Cl)cccc1Cl` (stereo unspecified) [2-{2-[(2,6-Dichlorophenyl)amino]phenyl}-N-(methylsulfonyl)propanamide], the half-maximal inhibitory concentration (IC50) came to 0.013 µM.
Take `O=C(O)Cc1ccccc1Nc1ccccc1` [(2-Phenylamino-phenyl)-acetic acid]: the concentration for half-maximal inhibition (IC50) was above 1 µM.
In the case of `COc1ccc2c(c1)c(CC(=O)O)c(C)n2C(=O)c1ccc(Cl)cc1` [indometacin], the 50% inhibitory concentration (IC50) is 0.05 µM.
Take `O=C(O)Cc1ccccc1Nc1ccccc1F` [2-(2-(2-fluorophenylamino)phenyl)acetic acid]: the half-inhibitory concentration (IC50) amounted to 0.009 µM.
As for `O=C(O)Cc1ccccc1Nc1c(F)cccc1F` [2-(2-(2,6-difluorophenylamino)phenyl)acetic acid], the 50% inhibitory concentration (IC50) is above 1 µM.
For the compound `Cc1ccc(Cl)c(Nc2ccccc2CC(=O)O)c1Cl` [2-(2-(2,6-dichloro-3-methylphenylamino)phenyl)acetic acid], the concentration for half-maximal inhibition (IC50) was 0.5 µM.
As to `Cc1cccc(C)c1NC(=O)C(C)c1ccccc1Nc1c(Cl)cccc1Cl` (stereo unspecified) [2-{2-[(2,6-Dichlorophenyl)amino]phenyl}-N-(2,6-dimethylphenyl)propanamide], the IC50 was 0.6 µM.
Turning to `O=C(O)Cc1cccc(C(=O)c2ccccc2)c1` [2-(3-benzoylphenyl)acetic acid], the half-inhibitory concentration (IC50) is above 1 µM.
As to `CS(=O)(=O)NC(=O)Cc1ccccc1Oc1ccccc1F` [2-[2-(2-Fluorophenoxy)phenyl]-N-(methylsulfonyl)acetamide], the half-inhibitory concentration (IC50) amounted to 0.05 µM.
Regarding `CC(C(=O)NCCO)c1ccccc1Nc1c(Cl)cccc1Cl` (stereo unspecified) [2-{2-[(2,6-Dichlorophenyl)amino]phenyl}-N-(2-hydroxyethyl)propanamide], the IC50 amounted to 0.02 µM.
The same measure, in the same setting: then `CC(C(=O)NCCC[N+](C)(C)C)c1ccccc1Nc1c(Cl)cccc1Cl` (stereo unspecified) [3-(2-(2-(2,6-dichlorophenylamino)phenyl)propanamido)-N,N,N-trimethylpropan-1-aminium iodide], with above 1 µM.
In the case of `O=C(O)Cc1ccccc1Nc1cc(Cl)ccc1Cl` [[2-(2,5-Dichloro-phenylamino)-phenyl]-acetic acid], the IC50 is 0.025 µM.
For `O=C(O)Cc1ccccc1Oc1ccccc1F` [2-(2-(2-fluorophenoxy)phenyl)acetic acid], the IC50 was determined as 0.013 µM.
Still for that read-out and setting: then `CC(C(=O)O)c1ccccc1Nc1c(Cl)cccc1Cl` (stereo unspecified) [2-{2-[(2,6-Dichlorophenyl)amino]phenyl}propanoic acid], with 0.01 µM; and `O=C(O)Cc1ccccc1Nc1ccccc1Cl` [[2-(2-Chloro-phenylamino)-phenyl]-acetic acid], with 0.4 µM.
With `CC(C(=O)NCCCN(C)C)c1ccccc1Nc1c(Cl)cccc1Cl` (stereo unspecified) [2-{2-[(2,6-Dichlorophenyl)amino]phenyl}-N,N'-[3,3-(dimethylamino)propyl]propanamide], the IC50 was found to be 0.025 µM.
With `Cc1ccc(C(=O)c2ccc(CC(=O)O)n2C)cc1` [2-(1-methyl-5-(4-methylbenzoyl)-1H-pyrrol-2-yl)acetic acid], the IC50 was found to be 0.09 µM.
Regarding `O=C(O)Cc1ccccc1Nc1c(Cl)cccc1Cl` [{2-[(2,6-dichlorophenyl)amino]phenyl}acetic acid], the IC50 was 0.008 µM.
As to `CC(C(N)=O)c1ccccc1Nc1c(Cl)cccc1Cl` (stereo unspecified) [2-{2-[(2,6-Dichlorophenyl)amino]phenyl}propanamide], the IC50 came to 0.012 µM.

A further test is described as follows: Inhibition of wild type CXCR1 transfected in mouse L1.2 cells assessed as inhibition of CXCL8-induced cell migration pretreated for 15 mins measured after 4 hrs.
Turning to `O=C(O)Cc1ccccc1Nc1c(Cl)cccc1Cl` [{2-[(2,6-dichlorophenyl)amino]phenyl}acetic acid], the IC50 is 0.012 µM.
